# From patent publication US4350685A, “Antiallergic imidodisulfamides” (SmithKline Corporation, priority 1981, dated 1982)
# Tested on: SRS-A induced contraction of guinea pig ileum
# Test: inhibition of SRS-A induced contraction of guinea pig ileum (SRS-A antagonist activity)
# Format: cell-based
# Details: Cavia porcellus, 0.25 h, partially purified SRS-A from guinea pig lung, 40 μg/ml, 15 minutes incubation, read-out: percent antagonism of SRS-A; for inhibition at 5 µM: 5×10^-6 M
# Experimental: The SRS-A antagonist activity of the compounds of this invention is measured by the ability of the active medicament to inhibit SRS-A induced contraction of guinea pig ileum. In this test system, sections of ileum are resected from guinea pigs and placed in 5 ml. tissue baths containing a modified Tyrode's solution. One end of the tissue is fixed to a glass tissue holder, the other is connected to a force-displacement transducer and the tissue is placed under a tension of 500 mg. Isometric tissue contractions are recorded on a six channel polygraph. Baths are constantly aerated with 95% O2 -5% CO2. After a 20 minute stabilization period a concentration of the appropriate agonist which provides a contraction height of 60-80% of the maximum obtainable to that agonist (as determined from full sequential concentration-response curves in separate experiments) is added to the tissue bath and the response recorded. The procedure is repeated until reproducible responses are obtained. For most agonists, two applications in rapid succession, followed 15 minutes later by a third, is sufficient to establish reproducibility. Experimental tissues are incubated with the selected concentration of the test compounds for 15 minutes. Experimental and control tissues are subjected to 5 bath changes during the incubation interval. Changes in bath fluid during the incubation period are helpful in insuring the reproducibility of tissue responses to the agonist. The same concentration of the agonist is reapplied in the presence of the test compound and the response registered and compared with controls. Percent inhibition produced by the test compound is calculated by substracting the mean percentage change in control tissue from the mean percentage change in tissues exposed to the test compound. Additional compounds are then evaluated as long as the tissue remains reproducibly responsive to the agonist. Six tissues obtained from 6 animals are used simultaneously--3 controls and 3 experimental. […]
smiles,measurement,setting,value
"O=S(=O)(N[C@@H]1C[C@H]1c1ccc(Cl)c(Cl)c1)NS(=O)(=O)N[C@@H]1C[C@H]1c1ccc(Cl)c(Cl)c1 (relative stereo) [Compound 2, 1,5-di[trans-2-(3,4-dichlorophenyl)cyclopropyl]imidodisulfamide]",inhibition at 5 µM,,60%
"O=S(=O)(N[C@@H]1C[C@H]1c1ccccc1)NS(=O)(=O)N[C@@H]1C[C@H]1c1ccccc1 (relative stereo) [Compound 1, 1,5-Di[TRANS-2-PHENYLCYCLOPROPYL]IMIDODISULFAMIDE]",inhibition at 5 µM,,17%
"O=S(=O)(N[C@@H]1CCCC[C@@H]1c1ccccc1)NS(=O)(=O)N[C@@H]1CCCC[C@@H]1c1ccccc1 (relative stereo) [Compound 3, 1,5-di[cis-2-phenylcyclohexyl]imidodisulfamide]",inhibition at 50 µM,5×10^-5 M,86%
